Active and inactive are the calls of the source. How the calls were made is not given here.
What was measured:
Schistosoma mansoni [1] = experiment: In vitro activity on S. mansoni schistosomula at 50 uM; type: functional, organism-based; design: test concentration 50 uM, temperature 37 degree C, time incubation 72 h; conditions: Puerto Rican
Schistosoma mansoni [2] = experiment: In vitro activity on S. mansoni schistosomula at 10 uM; type: functional, organism-based; design: test concentration 10 uM, temperature 37 degree C, time incubation 72 h; conditions: Puerto Rican
Schistosoma mansoni [3] = experiment: EC50 on S. mansoni schistosomula; type: functional, organism-based; conditions: Puerto Rican
Schistosoma mansoni [4] = type: functional, Puerto Rican; conditions: temperature 37 degree C; tested at 10 uM; Worm movement inhibition (compared to DMSO control)_lower value 0 %; Worm movement inhibition (compared to DMSO control)_upper value 100 %
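Wherever Worm movement inhibition is given: in vitro assay using adult worms.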

| Structure (SMILES) | In vitro activity (Schistosoma mansoni [1]) | In vitro activity (Schistosoma mansoni [2]) | EC50 (Schistosoma mansoni [3]) | Worm movement inhibition (Schistosoma mansoni [4]) |
| --- | --- | --- | --- | --- |
| CCNC(=O)c1cc2c(-c3cc(OCCN4CCCC4)c(Cl)cc3Cl)nc(N)nc2s1 | Active | Active | 547 nM | 91.33% |
| COc1ccc(-c2nc(N3CCOCC3)c3sc(CN(C)c4ncc(C(=O)NO)cn4)cc3n2)cn1 [FIMEPINOSTAT] | Active | Active | 606 nM | 56.87% |
| CC1(C)CC(=O)c2c(C(F)(F)F)nn(-c3ccc(C(N)=O)c(N[C@H]4CC[C@H](O)CC4)c3)c2C1 [SNX-2112] | Active | Active | 1940 nM | 25.47% |
| Cc1cccc(-c2nc(Nc3ccncc3)c3ccccc3n2)n1 | Active | Active | 2620 nM | 40.28% |
| COc1cc(N2CCC(N3CCN(C)CC3)CC2)ccc1Nc1ncc(Cl)c(Nc2ccccc2S(=O)(=O)C(C)C)n1 [TAE-684] | Active | Active | 2400 nM | 99.53% |
| C[C@@H]1C[C@H]2O[C@@H]2/C=C\C=C\C(=O)Cc2c(Cl)c(O)cc(O)c2C(=O)O1 [RADICICOL] | Active | Active | 1830 nM | 82.43% |
| COc1cc(N2CCN(C)CC2)ccc1Nc1nccc(-c2cn(C)c3cnccc23)n1 | Active | Active | 3400 nM | 93.2% |
| Cc1n[nH]c2ccc(-c3cncc(OC[C@@H](N)Cc4ccccc4)c3)cc12 | Active | Active | 2930 nM | 93.77% |
| CCNC(=O)c1noc(-c2cc(C(C)C)c(O)cc2O)c1-c1ccc(CN2CCOCC2)cc1 [LUMINESPIB] | Active | Active | 194 nM | 40.22% |
| OCCCNc1cc(-c2ccnc(Nc3cccc(Cl)c3)n2)ccn1 | Active | Active | 410 nM | 98.94% |
| Cl.Cl.O=C(NCCCNc1nc(Nc2cccc(CN3CCOCC3)c2)ncc1C1CC1)C1CCC1 | Active | Active | 3130 nM | 97.58% |
| CC[C@H](C)[C@H](NC(=O)[C@H]([C@@H](C)CC)N(C)C(C)=O)C(=O)N[C@H](C(=O)N[C@@H](CC(C)C)C(=O)[C@@]1(C)CO1)[C@@H](C)O [EPOXOMYCIN] | Active | Active | 226 nM | 97.15% |
| CNc1ncc2cc(-c3ccc(-c4cccc(C)n4)cc3Cl)c(=O)n(C[C@H]3OC[C@H](N)CO3)c2n1 | Active | Active | 2840 nM | 98.47% |
| Cc1[nH]c(/C=C2\C(=O)Nc3ccc(S(=O)(=O)Cc4c(Cl)cccc4Cl)cc32)c(C)c1C(=O)N1CCC[C@@H]1CN1CCCC1 [PHA-665752] | Active | Active | 4510 nM | 99.71% |
